Measured values as given in US20260226084A1, “DUAL RAF AND TUBULIN INHIBITORS AND METHODS OF USE THEREOF” (Deciphera Pharmaceuticals, LLC, priority 2023, published 2026).
Read-outs that look alike come from different tables or passages of the source.

Columns and labels:
[1] = target: T1, B-Raf kinase (SEQ ID NO: 1) (Homo sapiens, UniProt P15056); experiment: Biochemical Assay for B-Raf (coupled pyruvate kinase/lactate dehydrogenase assay)
T1 construct: GST (N); purchased Sigma

[2] = target: T2, C-Raf kinase (SEQ ID NO: 2) (Homo sapiens, UniProt P04049, Y340D/Y341D); experiment: Biochemical Assay for C-Raf (coupled pyruvate kinase/lactate dehydrogenase assay)
T2 construct: C-Raf residues 306-end; Y340D, Y341D with; GST (N); purchased Sigma
T2 sequence (P04049 307-648 Y340D/Y341D): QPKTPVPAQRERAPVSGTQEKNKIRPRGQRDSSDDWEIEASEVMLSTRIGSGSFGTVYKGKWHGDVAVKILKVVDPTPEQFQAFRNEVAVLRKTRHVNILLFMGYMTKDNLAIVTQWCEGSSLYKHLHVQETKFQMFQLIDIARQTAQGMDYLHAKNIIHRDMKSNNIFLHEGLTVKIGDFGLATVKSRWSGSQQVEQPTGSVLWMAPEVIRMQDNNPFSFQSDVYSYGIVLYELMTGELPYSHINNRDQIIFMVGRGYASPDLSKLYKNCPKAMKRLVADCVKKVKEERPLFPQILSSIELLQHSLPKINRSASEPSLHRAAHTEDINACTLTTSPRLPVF

HCT-116 cells = experiment: HCT-116 Cell Proliferation Assay; format: cell-based; settings: Homo sapiens
Summary of the method: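 IC50 values come from resazurin fluorescence (540 nm excitation, 600 nm emission) added for 4 to 5 h after compound treatment. Treatment: serially diluted compound in triplicate on 375 HCT-116 cells per well in complete McCoy's 5A/10% FBS, 67 to 72 hours, 37 °C, 5% CO2.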

HPAF-II cells = experiment: HPAF-II Cell Proliferation Assay; format: cell-based; settings: Homo sapiens, HPAF-II
Summary of the method: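 Viability read-out was resazurin fluorescence (540 nm excitation, 600 nm emission), developed 18–24 h after a 115–120 h compound exposure of 750 HPAF-II cells per well in MEM/10% FBS at 37 °C. Compound was tested as a serial dilution in triplicate, and IC50 values were calculated.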

Porcine Brain Tubulin = target: T3, Porcine Brain Tubulin (Sus scrofa, UniProt P02550+P02554); experiment: Biochemical Tubulin Polymerization Assay; settings: Table 3; Tubulin Biochemical assay; read-out: Tubulin Biochem (IC50 class)
T3 construct: Porcine Brain Tubulin (T240); purchased Cytoskeleton, Inc T240; BK011P; host or cells: porcine brain (tissue-purified)
T3 sequence (P02550 whole entry): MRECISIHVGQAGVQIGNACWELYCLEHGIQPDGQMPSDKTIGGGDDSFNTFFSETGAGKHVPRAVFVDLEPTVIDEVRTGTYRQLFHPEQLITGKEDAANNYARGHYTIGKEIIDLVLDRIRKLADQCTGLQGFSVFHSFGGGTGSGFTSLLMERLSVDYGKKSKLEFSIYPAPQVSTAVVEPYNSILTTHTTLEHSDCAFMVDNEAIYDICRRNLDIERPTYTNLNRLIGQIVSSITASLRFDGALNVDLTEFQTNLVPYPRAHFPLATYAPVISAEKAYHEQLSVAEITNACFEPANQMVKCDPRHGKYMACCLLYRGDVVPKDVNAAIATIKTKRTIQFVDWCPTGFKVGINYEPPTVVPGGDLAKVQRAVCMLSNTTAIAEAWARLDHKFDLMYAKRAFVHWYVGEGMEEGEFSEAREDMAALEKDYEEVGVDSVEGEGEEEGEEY
T3 sequence (P02554 whole entry): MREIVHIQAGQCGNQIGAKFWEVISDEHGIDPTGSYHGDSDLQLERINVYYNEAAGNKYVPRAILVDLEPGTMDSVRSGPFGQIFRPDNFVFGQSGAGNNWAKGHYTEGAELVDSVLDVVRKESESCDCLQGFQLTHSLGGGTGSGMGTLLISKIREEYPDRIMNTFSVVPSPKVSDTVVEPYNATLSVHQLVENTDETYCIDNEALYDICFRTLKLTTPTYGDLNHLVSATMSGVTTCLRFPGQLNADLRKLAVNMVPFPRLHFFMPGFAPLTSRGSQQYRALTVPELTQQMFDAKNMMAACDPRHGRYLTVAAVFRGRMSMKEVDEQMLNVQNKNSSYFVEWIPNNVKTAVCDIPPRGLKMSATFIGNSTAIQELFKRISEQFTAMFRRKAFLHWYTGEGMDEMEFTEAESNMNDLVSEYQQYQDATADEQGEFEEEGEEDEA

[3] = tested on: tubulin polymerization in HCT-116 cells; experiment: Cellular Tubulin Polymerization Assay; format: cell-based; settings: Homo sapiens, Table 3, read-out: Tubulin Cellular (IC50 class)
Method: HCT-116 cells (catalog #CCL-247) are obtained from the American Type Culture Collect (ATCC, Manassas, VA). Briefly, cells are grown in McCoy's 5A supplemented with 10% characterized fetal bovine serum (Invitrogen, Carlsbad, CA) and 1% Penicillin/Streptomycin/L-Glutamine at 37° C., 5% CO2, and 95% humidity. Cells are expanded until reaching 70-95% confluency at which point they are subcultured or harvested for assay use. 450000 cells are added per well in 1500 μL complete growth medium in a tissue culture treated, 12-well plate. Plates are incubated for 18 to 24 h at 37° C., 5% CO2, and 95% humidity. At the end of the incubation, 2000 μL of base culture media is added to each well, followed by a serial dilution of compound. Plates are incubated for an additional 1 h at 37° C., 5% CO2, and 95% humidity. Lysates are generated by the addition of 100 μL Lysis and Microtubule Stabilization Buffer 1 (LMS01, Cytoskeleton Inc, Denver, CO) supplemented with GTP (BST06, Cytoskeleton Inc), ATP (BSA04, Cytoskeleton Inc), and Protease Inhibitor Cocktail Stock (PIC02, Cytoskeleton Inc). Cells are scraped off wells using a rubber cell scraper and collected in a clean 96-well plate. Lysates are centrifuged at 1000×g, 37° C. for 10 min and supernatant fraction is placed into an additional 96-well plate. The remaining pellet fraction is reconstituted in 100 μL LMS01 buffer and sonicated for 10 min. Pellet and Supernatant fractions are probed for α-tubulin via western blot analysis on the Jess System or equivalent (Bio-techne, Minneapolis, MN). Data is analyzed using Prism software (Graphpad, San Diego, CA) to calculate IC50values.

[4] = 1 mM ATP, read-out: BRAF (inhibition of biochemical activity, IC50)
[5] = Table 3, read-out: BRAF (IC50 class)
[6] = 1 mM ATP, read-out: CRAF (inhibition of biochemical activity, IC50)
[7] = Table 3, read-out: CRAF (IC50 class)
[8] = HCT-116, HCT-116 cells, Table 2, read-out: Inhibition of cell proliferation in HCT-116 (IC50 class)
[9] = HCT-116, Table 3, read-out: HCT-116 (IC50 class)
[10] = HPAF-II cells, Table 2, read-out: Inhibition of cell proliferation in HPAF-II (IC50 class)
[11] = Table 3, read-out: HPAF-II (IC50 class)

T1 sequence (P15056 416-766): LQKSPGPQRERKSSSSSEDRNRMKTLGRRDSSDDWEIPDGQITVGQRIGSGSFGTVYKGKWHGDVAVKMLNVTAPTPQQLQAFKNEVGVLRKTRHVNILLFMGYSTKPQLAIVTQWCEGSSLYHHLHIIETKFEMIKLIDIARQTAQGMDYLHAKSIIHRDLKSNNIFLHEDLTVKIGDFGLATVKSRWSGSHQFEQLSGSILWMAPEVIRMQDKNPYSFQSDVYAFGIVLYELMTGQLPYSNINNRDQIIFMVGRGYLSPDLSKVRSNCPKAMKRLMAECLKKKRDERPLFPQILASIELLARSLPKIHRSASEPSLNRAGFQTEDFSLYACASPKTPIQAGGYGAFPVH

IC50 [1, 4] [nM] | IC50 [1, 5] [nM] | IC50 [2, 6] [nM] | IC50 [2, 7] [nM] | IC50 (HCT-116 cells; [8]) [nM] | IC50 (HCT-116 cells; [9]) [nM] | IC50 (Porcine Brain Tubulin) [nM] | IC50 [3] [nM] | Structure (SMILES) | IC50 (HPAF-II cells; [10]) [nM] | IC50 (HPAF-II cells; [11]) [nM]
< 100 | < 100 | < 100 | < 100 | < 100 | < 100 | 3000 to 20000 | < 100 | Cc1ccc(NC(=O)c2cc(C3CC3)cnn2)cc1-c1ccnc(-c2ccnc(NC(=O)C3CC3)c2)c1 [Example 43] | 100 to 500 | 100 to 500
< 100 | < 100 | < 100 | < 100 | 100 to 500 | 100 to 500 | 3000 to 20000 | < 100 | Cc1ccc(NC(=O)c2cc(C#N)cnn2)cc1-c1ccnc(-c2ccnc(NC(=O)C3CC3)c2)c1 [Example 96, 5-cyano-N-(3-(2′-(cyclopropanecarboxamido)-[2,4′-bipyridin]-4-yl)-4-methylphenyl)pyridazine-3-carboxamide] | 100 to 500 | 100 to 500

The remaining lines, values behind:

Structure (SMILES) | IC50 [1, 4] [nM] | IC50 [1, 5] [nM] | IC50 [2, 6] [nM] | IC50 [2, 7] [nM] | IC50 (HCT-116 cells; [8]) [nM] | IC50 (HCT-116 cells; [9]) [nM] | IC50 (Porcine Brain Tubulin) [nM] | IC50 [3] [nM] | IC50 (HPAF-II cells; [10]) [nM] | IC50 (HPAF-II cells; [11]) [nM]
Cc1ccc(NC(=O)c2cnc(C(F)(F)F)nc2)cc1-c1ccnc(-c2ccnc(NC(=O)C3CC3)c2)c1 [Example 17] | 100 to 500 | 100 to 500 | < 100 | < 100 | 100 to 500 | 100 to 500 | 3000 to 20000 | 500 to 1000 | < 100 | < 100
Cc1ccc(NC(=O)c2cc(C(C)(F)F)cnn2)cc1-c1ccnc(-c2ccnc(NC(=O)C3CC3)c2)c1 [Example 57] | < 100 | < 100 | < 100 | < 100 | < 100 | < 100 | < 3000 | 1000 to 10000 | < 100 | < 100
Cc1ccc(NC(=O)c2cc(C(F)(F)F)cnn2)cc1-c1ccnc(-c2ccnc(NC(=O)C3CC3)c2)c1 [Example 67] | < 100 | < 100 | < 100 | < 100 | < 100 | < 100 | < 3000 | < 100 | < 100 | < 100
